{
  "source": "paper PMC9326216",
  "about": "“Treatment of Cardiovascular Dysfunction with PDE3-Inhibitors in Moderate and Severe Hypothermia—Effects on Cellular Elimination of Cyclic Adenosine Monophosphate and Cyclic Guanosine Monophosphate” (Frontiers in Physiology, 2022)",
  "key": {"[1]": {"tested_on": "PDE3", "sequence (Q14432 whole entry)": "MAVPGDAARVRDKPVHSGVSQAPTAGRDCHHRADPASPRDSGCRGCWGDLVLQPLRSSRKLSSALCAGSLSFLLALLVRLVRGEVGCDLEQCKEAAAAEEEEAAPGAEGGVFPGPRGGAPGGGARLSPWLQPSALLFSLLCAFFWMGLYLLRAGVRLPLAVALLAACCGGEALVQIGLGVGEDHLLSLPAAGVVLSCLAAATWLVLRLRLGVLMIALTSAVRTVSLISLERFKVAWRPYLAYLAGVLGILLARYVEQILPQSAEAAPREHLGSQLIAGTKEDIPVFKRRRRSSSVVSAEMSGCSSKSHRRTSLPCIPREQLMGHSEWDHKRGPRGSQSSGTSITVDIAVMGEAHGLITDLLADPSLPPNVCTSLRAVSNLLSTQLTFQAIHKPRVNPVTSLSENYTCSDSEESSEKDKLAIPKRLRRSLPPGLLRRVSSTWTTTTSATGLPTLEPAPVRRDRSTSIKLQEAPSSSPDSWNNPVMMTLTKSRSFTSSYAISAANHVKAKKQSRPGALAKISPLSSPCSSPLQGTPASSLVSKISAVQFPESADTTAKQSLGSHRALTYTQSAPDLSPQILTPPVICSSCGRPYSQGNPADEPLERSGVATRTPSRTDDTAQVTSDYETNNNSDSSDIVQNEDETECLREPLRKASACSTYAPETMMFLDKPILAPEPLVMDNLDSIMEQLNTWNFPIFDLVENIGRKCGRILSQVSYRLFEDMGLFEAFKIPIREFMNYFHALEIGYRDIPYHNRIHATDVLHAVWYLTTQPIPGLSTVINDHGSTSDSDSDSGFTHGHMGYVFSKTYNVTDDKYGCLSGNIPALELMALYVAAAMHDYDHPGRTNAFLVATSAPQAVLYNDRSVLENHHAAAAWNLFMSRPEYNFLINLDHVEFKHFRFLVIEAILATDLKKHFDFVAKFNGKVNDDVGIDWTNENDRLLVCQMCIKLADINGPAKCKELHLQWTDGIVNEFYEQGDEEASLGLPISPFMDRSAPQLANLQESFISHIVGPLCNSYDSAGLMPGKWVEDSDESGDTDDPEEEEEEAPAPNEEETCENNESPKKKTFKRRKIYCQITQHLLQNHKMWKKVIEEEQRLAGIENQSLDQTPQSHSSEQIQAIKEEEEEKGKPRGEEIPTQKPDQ", "conditions": "ref Pathak et al., 2013; cited from earlier work"}, "[2]": {"tested_on": "ABCC5", "type": "biochemical", "experimental": "Freshly collected EDTA blood from healthy donors (n = 35) was prepared at 0°C–4°C, starting by separating the erythrocytes from plasma by centrifugation at 2,300 g for approximately 15 min. […] Lysis followed thereafter, with ten volumes of 5 mM Tris-HCl, 0.5 mM EGTA, 4 mM KCl (pH 8.1) and washed by repeated centrifugation at 20,000 g for 20 min and resuspension in the same buffer. Vesiculation was initiated by adding 39 volumes of a […] buffer ([…] Tris-HCl, pH 8.2) to one volume of cell suspension and completed by forcing the solution five times through a 27-gauge syringe needle to promote homogenization of the membranes. […] The resulting IOVs, which still contained ABC-transporters in the membrane, enabled us to control the intracellular environment, in this case the surrounding medium, and collect the cyclic nucleotides within. […] Radioactive labeled (^3H)-cAMP or (^3H)-cGMP (Perkin Elmer, Boston, MA, United States) were added to the incubation solutions in the concentration 20 and 2 μM, respectively, depending on the transporter examined, together with the appointed study drug in concentrations up to 1 mM. […] Next step was to collect the IOVs, which was done by filtration through a nitrocellulose membrane (Bio-Rad Laboratories, Feldkirchen, Germany), and then drying it. The resulting collection of radioactivity upon the filter, was later quantified by using a Packard TopCount NXT (Packard, Downers Grove, IL, United states) after adding scintillation fluid (MicroScint-O, PerkinElmer, Groningen, Netherlands).\nIC50 and Ki values were calculated for each of the drugs, both for their ability to inhibit cAMP- and cGMP- efflux, as well as PDE3 and PDE5 activity. […] Inhibition curves were created accordingly, both with and without adjustment for normothermic control."}},
  "note": "Read-outs that look alike come from different tables or passages of the source.",
  "data": [
    {"smiles": "C[C@@H]1CC(=O)NN=C1c1ccc(NN=C(C#N)C#N)cc1", "note": "[Levosimendan]", "values": [
      {"measurement": "Concentration at which it acts as a PDE3 inhibitor", "setting": "[1]", "value": "> 0.3", "unit": "µM"},
      {"measurement": "Drug selectivity (IC50)/(IC50): (cGMP-efflux)/(PDE5) inhibition", "setting": "[2]; 20°C", "value": 0.045},
      {"measurement": "Drug selectivity (IC50)/(IC50): (cGMP-efflux)/(PDE5) inhibition", "setting": "[2]; 24°C", "value": 0.124},
      {"measurement": "Drug selectivity (IC50)/(IC50): (cGMP-efflux)/(PDE5) inhibition", "setting": "[2]; 28°C", "value": 0.065},
      {"measurement": "Drug selectivity (IC50)/(IC50): (cGMP-efflux)/(cAMP-efflux) inhibition", "setting": "[2]; 28°C", "value": 0.44},
      {"measurement": "Drug selectivity (IC50)/(IC50): (cGMP-efflux)/(PDE5) inhibition", "setting": "[2]; 32°C", "value": 0.081},
      {"measurement": "Drug selectivity (IC50)/(IC50): (cGMP-efflux)/(cAMP-efflux) inhibition", "setting": "[2]; 32°C", "value": 0.80},
      {"measurement": "Drug selectivity (IC50)/(IC50): (cGMP-efflux)/(PDE5) inhibition", "setting": "[2]; 34°C", "value": 0.093},
      {"measurement": "Drug selectivity (IC50)/(IC50): (cGMP-efflux)/(cAMP-efflux) inhibition", "setting": "[2]; 34°C", "value": 1.09},
      {"measurement": "Drug selectivity (IC50)/(IC50): (cGMP-efflux)/(PDE5) inhibition", "setting": "[2]; 37°C", "value": 0.184},
      {"measurement": "Drug selectivity (IC50)/(IC50): (cGMP-efflux)/(cAMP-efflux) inhibition", "setting": "[2]; 37°C", "value": 3.03}
    ]}
  ]
}
